Where two headings read alike, the source gives them in different places.
Experiments:
[1] = biological target: AmpC β-lactamase from E. coli (Escherichia coli, UniProt P00811); assay: biochemical; type: biochemical
[2] = biological target: T1, TEM-1 β-lactamase from E. coli (Escherichia coli, UniProt P62593); assay: Inhibition of TEM-1 β-lactamase, spectrophotometric assay (FAP substrate); type: biochemical
T1 construct: gift: Natalie Strynadka, University of Alberta

[3] = test system: E. coli RYC1000 harboring pBGAmpC-E. coli producing AmpC (ECR-AmpCEc); assay: microbe, parasite or virus in culture; type: cell-based, Escherichia coli; details: ECR-AmpCEc
Protocol: (§1) After incubation, the growth of the cells was visually inspected. The minimum inhibitory concentration (MIC) is the lowest concentration where there no cell growth was observed.
(§2) The following strains were used: Enterobacter cloacae cell line with derepressed β-lactamase production (Ent-Der), and Escherichia coli RYC1000 (araD139 D lacU169 rpsL D rib7 thiA gyrA recA56) cell lines, harboring the plasmid pBGS19 (with no β-lactamase), or the β-lactamase containing plasmids pBGAmpC (AmpC β-lactamase from E. coli; Eco-AmpC), or pBGAmpC-MHN (AmpC β-lactamase from Enterobacter cloacae; Eco-AmpCEnt). […] TEM-10 and TEM-24 differ from TEM-1 due to the following point substitutions: TEM-10 (R164S, E240K); TEM-24 (L102K, L162S, S235T, A237K). TEM-10 and TEM-24 also differ from TEM-1 in being extended spectrum enzymes (i.e., they react with a greater range of substrates than TEM-1). Also tested were clinical isolates of Pseudomonas aeruginosa. All bacterial strains and plasmids are available from Jesus Blazquez and Fernando Baquero, Servicio de Microbiologia, Hospital Ramon y Cajal, National Institute of Health, Madrid, Spain.
(§3) Several ratios, including 1:1, 2:1, 4:1, and 1:3, of β-lactam antibiotic (amoxicillin (AX) or ceftazidime (CAZ)) to boronic acid compound were used in the assays. Tazobactam (TAZO), a clinically used β-lactamase inibitor, was used as a positive control.

[4] = test system: E. coli RYC1000 harboring pBGTEM-10 producing TEM-10 β-lactamase (EC-T10); assay: microbe, parasite or virus in culture; type: cell-based, Escherichia coli; details: EC-T10
Protocol: as §1, §2, §3

[5] = test system: E. coli RYC1000 harboring plasmid pBGS19 (no β-lactamase); assay: microbe, parasite or virus in culture; type: cell-based, Escherichia coli; details: for MIC of ceftazidime plus inhibitor: Table 3A, proportion 4/1; for MIC of ceftazidime plus inhibitor / MIC of inhibitor used alone without ceftazidime: pBGS19; for MIC of inhibitor used alone without ceftazidime: Table 3B
Protocol: as §1, §2, §3

[6] = test system: E. coli RYC1000 harboring a plasmid coding for a mutant of AmpC from Enterobacter (ECR-AmpCEnM); assay: microbe, parasite or virus in culture; type: cell-based, Escherichia coli
Protocol: as §1, §2, §3

[7] = test system: E. coli RYC1000 harboring plasmid pBGAmpC-MHN (AmpC β-lactamase of Enterobacter cloacae); assay: microbe, parasite or virus in culture; type: cell-based, Escherichia coli; details: for MIC of ceftazidime plus inhibitor: Table 3A, proportion 4/1, given as CAZ/inhibitor; for MIC of ceftazidime plus inhibitor / MIC of inhibitor used alone without ceftazidime: AmpC-MHN; for MIC of inhibitor used alone without ceftazidime: Table 3B; as to MIC of ceftazidime plus inhibitor: values in µg/ml
Protocol: as §1, §2, §3

[8] = test system: E. coli RYC1000 harboring plasmid pBGTEM-24 (TEM-24 β-lactamase); assay: microbe, parasite or virus in culture; type: cell-based, Escherichia coli; details: for MIC of ceftazidime plus inhibitor: Table 3A, proportion 4/1, given as CAZ/inhibitor; for MIC of inhibitor used alone without ceftazidime: Table 3B; as to MIC of ceftazidime plus inhibitor: values in µg/ml
Protocol: as §1, §2, §3

[9] = test system: E. coli RYC1000 harboring pBGTEM-1 producing TEM-1 β-lactamase (EC-T1); assay: microbe, parasite or virus in culture; type: cell-based, Escherichia coli; details: EC-T1
Protocol: as §1, §2, §3

[10] = test system: β-lactamase derepressed strain of Enterobacter cloacae (Ent-Der); assay: microbe, parasite or virus in culture; type: cell-based; details: for MIC of ceftazidime plus inhibitor: Table 3A, proportion 4/1, given as CAZ/inhibitor; for MIC of ceftazidime plus inhibitor / MIC of inhibitor used alone without ceftazidime: Ent. Der.; for MIC of inhibitor used alone without ceftazidime: Table 3B; as to MIC of ceftazidime plus inhibitor: values in µg/ml
Protocol: as §1, §2, §3

[11] = Tables 2A/2B, pH 7.0, 25° C., 100 μM cephalothin, read-out: Ki E. coli AmpC
[12] = Tables 2A/2B, pH 7.0, 25° C., 100 μM FAP, N.I. = no inhibition observed at an inhibitor concentration of 100 μM, read-out: Ki E. coli TEM-1
[13] = pH 7, read-out: Ki E. coli AmpC
[14] = Table 4B, not tested above 128 μg/ml, “256” indicates no inhibition of cell growth
[15] = Table 5, as described in Example 2, read-out: Ki AmpC

Sequence of AmpC β-lactamase from E. coli (P00811 20-377): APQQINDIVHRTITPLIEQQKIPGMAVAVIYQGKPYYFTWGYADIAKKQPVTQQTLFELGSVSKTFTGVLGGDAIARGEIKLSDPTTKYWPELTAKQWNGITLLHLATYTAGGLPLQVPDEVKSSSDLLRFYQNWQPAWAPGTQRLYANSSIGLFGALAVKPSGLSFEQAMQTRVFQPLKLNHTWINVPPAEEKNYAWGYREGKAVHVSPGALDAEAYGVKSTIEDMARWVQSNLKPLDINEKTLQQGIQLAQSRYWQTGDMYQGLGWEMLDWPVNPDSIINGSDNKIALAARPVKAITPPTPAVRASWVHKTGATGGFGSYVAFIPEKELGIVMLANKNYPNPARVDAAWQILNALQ
T1 sequence (P62593 24-286 limits assumed): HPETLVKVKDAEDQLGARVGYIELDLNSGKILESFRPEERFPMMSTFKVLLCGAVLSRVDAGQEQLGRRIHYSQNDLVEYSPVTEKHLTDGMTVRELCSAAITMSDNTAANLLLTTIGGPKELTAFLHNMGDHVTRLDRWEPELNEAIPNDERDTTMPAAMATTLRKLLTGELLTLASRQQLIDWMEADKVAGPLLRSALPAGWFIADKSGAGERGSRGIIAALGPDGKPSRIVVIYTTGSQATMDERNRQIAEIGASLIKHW

O=Cc1ccc(B(O)O)cc1 [4FORMB, 4-formylphenylboronate, reference compound]
Ki [1, 11]: 2.8 µM
Ki [2, 12]: 35 µM

OB(O)c1ccc(C(F)(F)F)cc1 [4TFMB]
Ki [1, 13]: 9 µM
Ki [2, 12]: 6.3 µM

OB(O)c1cccs1 [TH2B, thiophene-2-boronic acid]
Ki [2]: 31 µM
MIC of amoxicillin plus inhibitor ([3]; Table 4A, proportion 4/1): 64 mg/L
MIC of inhibitor used alone without amoxicillin [3, 14]: 128 mg/L
MIC of amoxicillin plus inhibitor ([4]; Table 4A, proportion 4/1): 256 mg/L
MIC of inhibitor used alone without amoxicillin [4, 14]: 128 mg/L
MIC of ceftazidime plus inhibitor [5]: <0.25 mg/L
MIC of inhibitor used alone without ceftazidime [5]: 128 mg/L
MIC of inhibitor used alone without amoxicillin ([5]; Table 4B, EC, not tested above 128 μg/ml, “256” indicates no inhibition of cell growth): 64 mg/L
MIC of amoxicillin plus inhibitor ([6]; Table 4A, ECR-AmpCEnM, proportion 4/1): 32 mg/L
MIC of inhibitor used alone without amoxicillin ([6]; Table 4B, ECRAmpCEnM, not tested above 128 μg/ml, “256” indicates no inhibition of cell growth): 64 mg/L
MIC of ceftazidime plus inhibitor [7]: 8/2
MIC of inhibitor used alone without ceftazidime [7]: 128 mg/L
MIC of amoxicillin plus inhibitor ([7]; Table 4A, EC-AmpCEn, proportion 4/1): 32 mg/L
MIC of inhibitor used alone without amoxicillin ([7]; Table 4B, ECAmpCEn, not tested above 128 μg/ml, “256” indicates no inhibition of cell growth): 128 mg/L
MIC of ceftazidime plus inhibitor [8]: 128/32
MIC of inhibitor used alone without ceftazidime [8]: 128 mg/L
MIC of amoxicillin plus inhibitor ([9]; Table 4A, proportion 4/1): 128 mg/L
MIC of inhibitor used alone without amoxicillin [9, 14]: 64 mg/L
MIC of ceftazidime plus inhibitor [10]: 32/8
MIC of inhibitor used alone without ceftazidime [10]: 256 mg/L
MIC of amoxicillin plus inhibitor ([10]; Table 4A, Ent-Der., proportion 4/1): 64 mg/L
MIC of inhibitor used alone without amoxicillin ([10]; Table 4B, Ent-Der., not tested above 128 μg/ml, “256” indicates no inhibition of cell growth): 128 mg/L

OB(O)c1csc2ccccc12
Ki ([1]; read-out: Ki AmpC): 0.78 ± 0.08 µM

CN1C(=O)/C(=N\Nc2cccc(B(O)O)c2)c2ccccc2C1=O
Ki [1, 15]: 0.075 µM

OB(O)c1cccc(C(F)(F)F)c1 [3TFMB]
Ki values (AmpC), range in words [1]: one to two
Ki [1, 13]: 1.6 µM
Ki [2, 12]: 85 µM

OB(O)c1ccc(B(O)O)cc1 [B14DA]
Ki [1, 13]: 6.9 µM
Ki [2, 12]: 40 µM

CCCCB(O)O [BUTB, Butylboronic acid]
Ki [1, 11]: > 500 µM
Ki [2]: > 100 µM

O=C(O)/C=C/c1cccc(B(O)O)c1
Ki [1, 15]: 5.9 ± 0.3 µM

OB(O)c1ccc2[nH]ccc2c1
Ki [1, 15]: 10.9 ± 0.6 µM

OB(c1ccccc1)c1ccccc1 [DFB, diphenylboronic acid]
inhibition of AmpC (in words) [1]: lacks measurable inhibition
Ki [1, 11]: > 500 µM
Ki [2, 12]: > 100 µM

OB(O)c1ccc(Cl)s1 [5CLTH2B, 5-chlorothiophene-2-boronic acid]
Ki [1, 11]: 1.4 µM
Ki [2]: 17 µM
MIC of ceftazidime plus inhibitor [5]: <0.25 mg/L
MIC of inhibitor used alone without ceftazidime [5]: 128 mg/L
MIC of ceftazidime plus inhibitor [7]: 4/1
MIC of inhibitor used alone without ceftazidime [7]: 128 mg/L
MIC of ceftazidime plus inhibitor [8]: 128/32
MIC of inhibitor used alone without ceftazidime [8]: 128 mg/L
MIC of ceftazidime plus inhibitor [10]: 32/8
MIC of inhibitor used alone without ceftazidime [10]: 128 mg/L

OB(O)c1ccsc1 [TH3B, thiopene-3-boronic acid]
Ki [1, 13]: 17 µM
Ki ([1]; read-out: Ki for AmpC): 22.1 ± 3.5 µM
Ki [2, 12]: 100 µM

OB(O)c1cc(N=Nc2cccc(C(F)(F)F)c2)ccc1O [HFAB, 2-hydroxy-5-(3-(trifluoromethyl)phenylazo) benzeneboronic acid]
Ki [1, 11]: 1.3 µM

O=Cc1ccccc1B(O)O [2FORMB, 2-formylphenylboronate, reference compound]
Ki [1, 11]: 62 µM
Ki [2, 12]: > 100 µM

O=Cc1ccsc1B(O)O [3FTH2B, 3-formylthiophene-2-boronic acid]
Ki [1, 11]: 3.5 µM
Ki E. coli TEM-1 ([2]; Tables 2A/2B, pH 7.0, 25° C., 100 μM FAP, N.I. = no inhibition observed at an inhibitor concentration of 100 μM): N.I.

From US6417174B1, “Inhibitors of β-lactamases and uses therefor” (Northwestern University, priority 1997, dated 2002)
